Measured values: patent US8263606B2 (Xenon Pharmaceuticals Inc., priority 2008, dated 2012)
Structures can show the parent of a compound that is named as a salt.

How the values were obtained:
sodium channel = assay: Guanidine influx assay (14C-guanidine radiotracer flux, in vitro); assay type: cell-based, human or rat; conditions: guanidine influx assay using a known cell line that expresses a sodium channel
From the text: This example describes an in vitro assay for testing and profiling test agents against human or rat sodium channels stably expressed in cells of either an endogenous or recombinant origin. The assay is also useful for determining the IC50 of a sodium channel blocking compound. The assay is based on the guanidine flux assay described by Reddy, N. L., et al., J. Med. Chem. (1998), 41(17):3298-302.
The guanidine influx assay is a radiotracer flux assay used to determine ion flux activity of sodium channels in a high-throughput microplate-based format. The assay uses ^14C-guanidine hydrochloride in combination with various known sodium channel modulators, to assay the potency of test agents. Potency is determined by an IC50 calculation. Selectivity is determined by comparing potency of the compound for the channel of interest to its potency against other sodium channels (also called ‘selectivity profiling’).
Each of the test agents is assayed against cells that express the channels of interest. Voltage gated sodium channels are either TTX sensitive or insensitive. This property is useful when evaluating the activities of a channel of interest when it resides in a mixed population with other sodium channels. The following Table 1 summarizes cell lines useful in screening for a certain channel activity in the presence or absence of TTX.
It is also possible to employ recombinant cells expressing these sodium channels. Cloning and propagation of recombinant cells are known to those skilled in the art (see, for example, Klugbauer, N, et al., EMBO J. (1995), 14(6):1084-90; and Lossin, C., et al., Neuron (2002), 34, pp. 877-884).
Cells expressing the channel of interest are grown according to the supplier or in the case of a recombinant cell in the presence of selective growth media such as G418 (Gibco/Invitrogen). The cells are disassociated from the culture dishes with an enzymatic solution (Ix) Trypsin/EDTA (Gibco/Invitrogen) and analyzed for density and viability using haemocytometer (Neubauer). Disassociated cells are washed and resuspended in their culture media then plated into Scintiplates (Beckman Coulter Inc.) (approximately 100,000 cells/well) and incubated at 37° C./5% CO2 for 20-24 hours. After an extensive wash with Low sodium HEPES-buffered saline solution (LNHBSS) (150 mM Choline Chloride, […] (Sigma), 1 mM Calcium Chloride, 5 mM Potassium Chloride, 1 mM Magnesium Chloride, 10 mM Glucose) agents diluted with LNHBSS are added to each well. (Varying concentrations of test agent may be used). The activation/radiolabel mixture contains aconitine (Sigma) to increase the percentage of time that the sodium channels are open, and ^14C-guanidine hydrochloride (ARC) to measure flux through the voltage-gated sodium channels.
After loading the cells with test agent and activation/radiolabel mixture, the Scintiplates are incubated at ambient temperature. Following the incubation, the Scintplates are extensively washed with LNHBSS supplemented with guanidine (Sigma). The Scintiplates are dried and then counted using a Wallac MicroBeta TriLux (Perkin-Elmer Life Sciences). The ability of the test agent to block sodium channel activity is determined by comparing the amount of ^14C-guanidine present inside the cells expressing the different sodium channels.
The IC50 value of a test agent for a specific sodium channel may be determined using the above general method. […] Typically the mid-point concentration of test agent is set at 1 μM, and sequential concentrations of half dilutions greater or smaller are applied (e.g. 0.5 μM; 5 μM and 0.25 μM; 10 μM and 0.125 μM; 20 μM etc.). The IC50 curve is calculated using the 4 Parameter Logistic Model or Sigmoidal Dose-Response Model formula (fit=(A+((B−A)/(1+((C/x)^D)))).
The fold selectivity, factor of selectivity or multiple of selectivity, is calculated by dividing the IC50 value of the test sodium channel by the reference sodium channel, for example, Nav1.5. […]

CYP3A4 = CYP3A4 (Homo sapiens, UniProt P08684); assay: Cytochrome P450 (CYP450) Inhibition Assay, CYP3A4 (Vivid fluorescence, BOMCC substrate); conditions: human, P450 Baculosomes (recombinant CYP3A4), probe BOMCC (Vivid substrate)
Chain of CYP3A4 (P08684 whole entry): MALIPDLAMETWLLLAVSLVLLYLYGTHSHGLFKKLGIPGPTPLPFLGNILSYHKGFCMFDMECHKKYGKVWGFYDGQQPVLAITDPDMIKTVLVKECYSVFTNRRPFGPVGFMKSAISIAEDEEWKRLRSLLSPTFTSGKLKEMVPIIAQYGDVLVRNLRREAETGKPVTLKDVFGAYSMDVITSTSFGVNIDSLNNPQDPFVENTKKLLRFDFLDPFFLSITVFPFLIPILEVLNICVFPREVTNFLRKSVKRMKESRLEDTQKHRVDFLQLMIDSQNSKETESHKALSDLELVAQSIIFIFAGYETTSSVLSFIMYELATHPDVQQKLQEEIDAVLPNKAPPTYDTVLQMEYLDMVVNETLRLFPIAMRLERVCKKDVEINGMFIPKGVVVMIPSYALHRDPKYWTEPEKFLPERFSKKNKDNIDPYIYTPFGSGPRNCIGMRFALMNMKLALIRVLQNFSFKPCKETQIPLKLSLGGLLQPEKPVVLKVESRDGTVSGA

IC50 (sodium channel)	inhibition at 10 µM (CYP3A4)	IC50 (sodium channel; activity level class)	SMILES
0.1 to 1 µM	> 50%		O=C1N(C[C@H]2CCCO2)c2cccc(-c3cc(C(F)(F)F)cc(C(F)(F)F)c3)c2C12COc1cc3c(cc12)CCO3 (stereo partly drawn) [Example 16.5, 4′-[3,5-bis(trifluoromethyl)phenyl]-1′-[(2R)-tetrahydrofuran-2-ylmethyl]-5,6-dihydrospiro[benzo[1,2-b:5,4-b′]difuran-3,3′-indol]-2′(1′H)-one]
0.1 to 1 µM	> 50%		O=C1N(Cc2ccc(N3CCOCC3)cc2)c2ccccc2C12COc1cc3c(cc12)CCO3 (stereo not drawn) [Example 11.46, t-(4-morpholin-4-ylbenzyl)-5,6-dihydrospiro[benzo[1,2-b:5,4-b′]difuran-3,3′-indol]-2′(1′H)-one]
	> 50%	0.1 to 1 µM	O=C1N(Cc2ccc(C(F)(F)F)o2)c2ccccc2C12COc1ccc(Br)cc12 (stereo not drawn) [Example 2.23, 5-bromo-1′-((5-(trifluoromethyl)furan-2-yl)methyl)-2H-spiro[benzofuran-3,3′-indolin]-2′-one]
0.1 to 1 µM	> 50%		NCCNC(=O)c1cccnc1CN1C(=O)C2(COc3cc4c(cc32)OCCO4)c2ccccc21 (stereo not drawn) [Example 12.64, N-(2-aminoethyl)-2-[(2′-oxo-2,3-dihydrospiro[furo[2,3-g][1,4]benzodioxine-8,3′-indol]-1′(2′H)-yl)methyl]pyridine-3-carboxamide dihydrochloride]
0.1 to 1 µM	> 50%		O=C1N(Cc2ccc(-c3cccnc3)cc2)c2ccccc2C12COc1cc3c(cc12)CCO3 (stereo not drawn) [Example 11.16, 1′-(4-pyridin-3-ylbenzyl)-5,6-dihydrospiro[benzo[1,2-b:5,4-b′]difuran-3,3′-indol]-2′(1′H)-one]
0.1 to 1 µM	< 50%		NC(=O)c1coc(CN2C(=O)C3(COc4cc5c(cc43)CCO5)c3ccccc32)n1 (stereo not drawn) [Example 13.3, 2-[(2′-oxo-5,6-dihydrospiro[benzo[1,2-b:5,4-b′]difuran-3,3′-indol]-1′(2′H)-yl)methyl]-1,3-oxazole-4-carboxamide]
	> 50%	1 to 10 µM	CN(C)S(=O)(=O)c1cccc(CN2C(=O)C3(COc4cc5c(cc43)OCCO5)c3ccccc32)c1 (stereo not drawn) [Example 7.16, N,N-dimethyl-3-[(2′-oxo-2,3-dihydrospiro[furo[2,3-g][1,4]benzodioxine-8,3′-indol]-1′-(2′H)-yl)methyl]benzenesulfonamide]
1 to 10 µM	< 50%		O=C1N(CC2CCNCC2)c2ccccc2C12COc1cc3c(cc12)OCCO3 (stereo not drawn) [Example 11.99, 1-(piperidin-4-ylmethyl)-2,3-dihydrospiro[furo[2,3-g][1,4]benzodioxine-8,3′-indol]-2′(1′H)-one hydrochloride]
	> 50%	0.001 to 0.1 µM	O=C1N(Cc2ccc(F)cc2)c2ccccc2C12COc1cc3c(cc12)CCO3 (stereo not drawn) [Example 4.13, 1′-(4-fluorobenzyl)-5,6-dihydrospiro[benzo[1,2-b:5,4-b′]difuran-3,3′-indol]-2′(1′H)-one]
1 to 10 µM	> 50%		O=C(Nc1ccccc1C(F)(F)F)c1ccc(CN2C(=O)C3(COc4cc5c(cc43)CCO5)c3ccccc32)cc1 (stereo not drawn) [Example 12.26, 4-[(2′-oxo-5,6-dihydrospiro[benzo[1,2-b:5,4-b′]difuran-3,3′-indol]-1′(2′H)-yl)methyl]-N-[2-(trifluoromethyl)phenyl]benzamide]
0.1 to 1 µM	> 50%		Cc1noc2cc3c(cc12)C1(CO3)C(=O)N(Cc2ccc(-c3cc(N)n[nH]3)cc2)c2ccccc21 (stereo not drawn) [Example 29.1, 1′-[4-(3-amino-1H-pyrazol-5-yl)benzyl]-3-methylspiro[furo[3,2-f][1,2]benzisoxazole-5,3′-indol]-2′(1′H)-one hydrochloride]
	> 50%	0.001 to 0.1 µM	COC(=O)c1ccc(CN2C(=O)C3(COc4cc5c(cc43)CCO5)c3ccccc32)o1 (stereo not drawn) [Example 4.7, methyl 5-[(2′-oxo-5,6-dihydrospiro[benzo[1,2-b:5,4-b′]difuran-3,3′-indol]-1′(2′H)-yl)methyl]furan-2-carboxylate]
